In PubChem BioAssay (NCI):
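Five compound concentrations were applied to cells in 96-well plates for 48 hours; endpoints were derived by simple linear interpolation of the resulting dose-response curve. Abbreviation: GI50, concentration required for 50% inhibition of growth. The concentration for full growth arrest is given as TGI.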 Where a SMILES comes first, the peptide text is derived from it. [ ]: non-standard residue; d: D form. ξ: configuration not given here. ξLac(3-iPr) = CC(C)CC(O)C(=O)O; NMeV = CN[CH](C(=O)O)C(C)C; NMeA = CN[CH](C)C(=O)O; βAla = NCCC(=O)O

Tests used:
Assay in all cases: NCI anticancer screen, dose series, 48 h
SN12C renal = tested on: SN12C renal
CAKI-1 renal = tested on: CAKI-1 renal
NCI-H226 lung = tested on: NCI-H226 lung
HL-60(TB) leukemia = tested on: HL-60(TB) leukemia
SNB-75 CNS = tested on: SNB-75 CNS
SW-620 colon = tested on: SW-620 colon
EKVX NSCLC = tested on: EKVX NSCLC
CCRF-CEM leukemia = tested on: CCRF-CEM leukemia
MALME-3M melanoma = tested on: MALME-3M melanoma
OVCAR-3 ovarian = tested on: OVCAR-3 ovarian
UACC-62 melanoma = tested on: UACC-62 melanoma
SK-OV-3 ovarian = tested on: SK-OV-3 ovarian

Compound | TGI (SN12C renal) | TGI (CAKI-1 renal) | TGI (NCI-H226 lung) | TGI (HL-60(TB) leukemia) | TGI (SNB-75 CNS) | TGI (SW-620 colon) | TGI (EKVX NSCLC) | TGI (CCRF-CEM leukemia) | TGI (MALME-3M melanoma) | TGI (OVCAR-3 ovarian) | TGI (UACC-62 melanoma) | TGI (SK-OV-3 ovarian) | GI50 (NCI-H226 lung) | GI50 (SNB-75 CNS) | GI50 (EKVX NSCLC) | GI50 (CCRF-CEM leukemia) | GI50 (OVCAR-3 ovarian) | GI50 (UACC-62 melanoma) | GI50 (SK-OV-3 ovarian)
CO/N=C\c1cc(O)c(O)c(/C=N/OC)c1 | > 100 µM | > 100 µM | 88.9 µM | 99.3 µM | > 100 µM | > 100 µM | > 100 µM | > 100 µM | > 100 µM | > 100 µM | > 100 µM | > 100 µM | – | – | – | – | – | – | –
O=C1C=CC(=O)c2c(O)c(Br)c(Br)c(O)c21 | 18.4 µM | – | 55.6 µM | 2.21 µM | 38.4 µM | 3.44 µM | 58.7 µM | 3.92 µM | 2.54 µM | 15.8 µM | 26.1 µM | 35.5 µM | – | – | – | – | – | – | –
C[C@]12CC[C@@H]3c4ccc(O)cc4CC[C@H]3[C@@H]1CC[C@@H]2OC(=O)CCc1ccccc1 | 49.6 µM | 37.7 µM | 36.8 µM | 43.9 µM | 33.8 µM | 64.7 µM | 25.4 µM | 67.5 µM | 34.8 µM | 61.6 µM | 28.8 µM | 38.1 µM | – | – | – | – | – | – | –
Cc1ccc(C2COc3cc(O)c(O)cc3C2)cc1 (stereo not given) | 103 µM | 38.1 µM | 235 µM | 8.27 µM | 126 µM | 34.5 µM | 59.8 µM | 12.3 µM | 48.9 µM | 23.1 µM | 77.2 µM | 275 µM | – | – | – | – | – | – | –
COc1cc(C(=O)CC2OC(=O)C(Cl)=C2Cl)ccc1Cl (stereo not given) | > 100 µM | > 100 µM | > 100 µM | > 100 µM | > 100 µM | > 100 µM | > 100 µM | > 100 µM | > 100 µM | > 100 µM | > 100 µM | > 100 µM | – | – | – | – | – | – | –
O=C(c1ccccc1)C1C(c2ccccc2)N1S(=O)(=O)c1ccccc1 (stereo not given) | > 100 µM | > 100 µM | > 100 µM | – | > 100 µM | > 100 µM | > 100 µM | > 100 µM | > 100 µM | > 100 µM | > 100 µM | > 100 µM | – | – | – | – | – | – | –
Cc1nc2[nH]ncn2c(=O)c1CCCl | > 10 µM | > 10 µM | > 10 µM | > 10 µM | > 10 µM | > 10 µM | > 10 µM | > 10 µM | > 10 µM | – | > 10 µM | > 10 µM | – | – | – | – | – | – | –
N#C/C(=C\c1ccc(Br)cc1)n1nnc2cc(Cl)c(Cl)cc21 | – | – | > 100 µM | – | 8.26 µM | – | > 100 µM | > 100 µM | – | 5.29 µM | 3.63 µM | > 100 µM | 3.59 µM | 1.73 µM | 2.83 µM | 1.71 µM | 2.1 µM | 1.68 µM | 4.33 µM
CCC(C)C1NC(=O)C2CCCN2C(=O)C(CC(C)C)OC(=O)CCNC(=O)C(C)N(C)C(=O)C(C(C)C)N(C)C1=O (stereo not given) (cyclo([ξLac(3-iPr)]PI[NMeV][NMeA][βAla]); configuration not given here) | > 100 µM | > 86.2 µM | > 45.9 µM | 18.2 µM | > 86.8 µM | > 100 µM | > 100 µM | > 17.9 µM | 45.2 µM | > 100 µM | 5.06 µM | > 86.8 µM | – | – | – | – | – | – | –
O=C(c1ccccc1)c1nc2ccc(Cl)cc2c2c1CCCO2 | > 100 µM | > 100 µM | > 100 µM | – | – | > 100 µM | > 100 µM | – | > 100 µM | > 100 µM | > 100 µM | – | – | – | – | – | – | – | –
